# In US6642003B2, “Human glucose-dependent insulin-secreting cell line” (Cedars-Sinai Medical Center, priority 2001, dated 2003):
# Tests used:
# [1] = tested on: ARIP cells; test: Immunofluorescence for IDX-1, ARIP cells; format: cell-based, rat
# Protocol: Cells were cultured on monocoated chamber slides (Nalge Nunc International; Naperville, Ill.) in the presence of GLP-1 (10 nM), or vehicle, for 72 h.
# For the detection of IDX-1, slightly different conditions were used. Briefly: the concentration of paraformaldehyde was decreased to 2%, and the concentration of Triton to permeabilize the cells was raised to 0.2% Triton-X-100. Cells were then washed with 0.01 M PBS three times for 3-5 min, and non-specific binding was inhibited by using 5% chick serum in 0.01 M PBS, at room temperature for 60 min in a humid chamber. A rabbit IDX-1 antibody directed against the N-terminus of the frog homologue of the IDX-1 gene was used as the primary antibody (1:500 diluted with 0.1% Triton-X 100, 1% BSA in 0.01 M PBS), and slides were incubated at 4° C. overnight in a humid chamber. After washing, cells were incubated with a fluorescein-conjugated goat anti-rabbit IgG antibody (Molecular Probes, Inc. Eugene, Oreg.) and incubated at room temperature for 1 hour in a humid chamber. Nuclei of cells stained with anti-IDX-1 antibody were visualized with Hoechst […] dye (Sigma, St. Louis, Mo.). The percentage of IDX-1 containing cells was evaluated by counting the number of IDX-1 “positive” cells divided by the total number of cells identified by nuclear staining.
# [2] = tested on: ARIP and PANC-1 cells; test: GLP-1 receptor (GLP-R) mRNA by cycle-titration RT-PCR; format: cell-based; conditions: GLP-1 10 nM for 72 h, transfected and non-transfected cells
# Protocol: FIGS. 9A-C show GLP-1 receptor expression in ARIP and PANC-1 cells. ARIP and PANC-1 cells (transfected with human IDX-1, or solely with the neomycin resistant gene) were cultured in serum-free medium and treated with GLP-1 (10 nM), or vehicle alone, for 72 h. RT-PCR for GLP-R and β-actin was performed with a cycle-titration PCR (15, 20, 25, 30 PCR cycles) to assess the relative abundance of GLP-R transcript. Primers for both transcripts were added together in a single PCR-reaction for each individual sample. […] Each experiment was repeated four times, using RNA samples from independent cultures. The blots on the left represent one individual experiment, while the graphs on the right are the average of four independent experiments. The numeric values in the graphs represent the ratio of GLP-R mRNA to actin mRNA.
# Treatment with GLP-1 induces the differentiation of ductal epithelial cells into insulin-producing cells. FIG. 2 illustrates a series of cell cultures grown with or without GLP-1 (10 nM) for 72 h. […] Preabsorption of the antibody with an excess of human recombinant insulin prevented the staining of insulin-positive GLP-1 treated cells (data not shown). While treatment with GLP-1 turned the majority of ARIP cells into glucokinase mRNAs, the same PCR conditions as described above were used in the presence of gene-specific primers. […]
# [3] = tested on: ARIP cells; test: Morphological changes (hematoxylin and eosin), ARIP cells; format: cell-based, rat; conditions: GLP-1 10 nM for 72 h
# Source text: Hematoxylin and eosin staining was employed, in some experiments, to show the morphological changes observed under the experimental conditions described below.
# [4] = tested on: ARIP cells; test: Flow cytometric (FACS) analysis for insulin, ARIP cells; format: cell-based, rat; conditions: GLP-1 10 nM, 72 hours
# Protocol: For fluorescence-activated cells sorting (FACS) analysis, cells were cultured in the presence of GLP-1 (10 nM), or vehicle, for 72 h, then washed with cold PBS (pH 7.4; three times) and incubated overnight, on ice, in PBS with 2% paraformaldehyde. After centrifugation, the cell pellet was resuspended in 400 μl of cold 0.1% Triton diluted in FACS buffer (PBS with 2% FCS). After several centrifugation and washes, the cells were resuspended in the assay buffer with of 10 μl of fluorescent-conjugated insulin antibody (Cat N. FM205, FITC: Chromaprobe, Inc; Mountain View, Calif.), in the presence of 10 μl of blocking antibody (anti-mouse IgG; Organon Teknika-Cappel, West Chester, Pa.). Control samples were treated with PBS, without the primary antibody, and then incubated with an […] FITC-conjugated control antibody (murine IgG; Chromaprobe Inc., Mountain View, Calif.). Flow cytometric analysis was performed with a FACScan[R] cytometer, using the LYSYS II program, and by fluorescence microscopy, as is well known in the art. See, e.g., E. Elstner, M. Linker-Israeli, J. Le, T. Umiel, P. Michl, J. W. Said, L. Binderup, J. C. […]
substance,measurement,setting,value
glucagon-like peptide-1 [GLP-1],effect on expression level of IDX-1,[1]; GLP-1 10 nM for 72 h,further increase
same,cells expressing IDX-1,"[1]; GLP-1 or vehicle, 400 cells counted",approximately 70%
same,effect on GLP-R mRNA levels,[2],further modest increase (no-statistically significant)
same,morphological change,[3],promoted the aggregation of cells in small clusters
same,cells reacting with anti-human insulin antibody,[4],72.6%
